From patent EP1701622B1, “METHOD FOR WASHING CARCASS, MEAT, OR MEAT PRODUCTS WITH MEDIUM CHAIN PEROXYCARBOXYLIC ACID COMPOSITIONS” (ECOLAB INC., priority 2004, dated 2005) come the findings set out here.

Read-outs that look alike come from different tables or passages of the source.

Holding throughout (type): cell-based
One test deals with Bacterial Spores. Briefly: Sporicidal test against conventional compositions (Table 22). As to conditions: H2O2 35% pH 3.32, KK 2.0 wt-% (250 ppm POOA) pH 1.85, mixed peracid 1.5 wt-% (750 ppm peracid) pH 3.06, peroxyacetic 4.5 wt-% (2610 ppm POAA) pH 2.61. The procedure:
(§1) Antimicrobial activity was determined according to two well established methods. The first method was the procedure set out in Germicidal and Detergent Sanitizing Action of Disinfectants, Official Methods of Analysis of the Association of Official Analytical Chemists, paragraph 960.09 and applicable sections, 15th Edition, 1990 (EPA Guideline 91-2). The second method was the procedure described in A.O.A.C. Use Dilution Methods, Official Methods of Analysis of the Association of Official Analytical Chemists, paragraph 955.14 and applicable sections, 15th Edition, 1990 (EPA Guideline 91-2). Briefly, antimicrobial activity of the present compositions was determined by exposing a one mL aliquot containing the target microorganism to 99 mL of the desired concentration of the test substance at the desired temperature. After the specified contact time, one mL of the test solution containing the microorganism was neutralized and enumerated for survivors.

For a further test, the system named is S. aureus. In words: Germicidal and detergent sanitizing action suspension test (AOAC 960.09). The following applies: Staphylococcus aureus, 0.5 min. The procedure:
as §1
(§2) Antimicrobial activity was determined as described above in Example 4.
(§3) Test 1 included 5 min exposure of the microbe to composition AB at room temperature. The microbes in test 1 included E. aerogenes ATCC 13048 and S. aureus ATCC 6538. Test 2 included 30 sec exposure of the microbe to composition AB at room temperature. The microbes in test 2 included S. aureus ATCC 6538, E. coli ATCC 11229, and P. aeruginosa ATCC 13442.

For another test, the system named is E. coli. The description is as above. As to conditions: Escherichia coli, 0.5 min; for log reduction at 5 ppm / log reduction at 10 ppm: 30 Second Exposure at Room Temperature; for log reduction at 20 ppm / log reduction at 40 ppm / log reduction at 60 ppm: 30 seconds. The procedure: as §1, §2, §3
[1] abbreviates: Soft water pH 3.91, Post Test pH 4.01.

Take `OO` [Composition H2O2, hydrogen peroxide]: the “Log Reduction” value is listed as 1.19 log in the test with Bacterial Spores (40 °C, 30 sec); 2.94 log with Bacterial Spores (40 °C, 60 sec); above 6.30 log in the test on Bacterial Spores (40 °C, 120 sec); 1.59 log in the test on Bacterial Spores (60 °C, 10 sec); 4.85 log with Bacterial Spores (60 °C, 20 sec); 4.89 log in the test with Bacterial Spores (60 °C, 30 sec). Moreover, the “Log Reduction” value with Bacterial Spores (80 °C, 10 sec) was above 6.30 log; with Bacterial Spores (80 °C, 20 sec), above 6.30 log; in the test with Bacterial Spores (80 °C, 30 sec), above 6.30 log.
`CCCCCCCC(=O)OO` [Pure POOA Crystals, peroxyoctanoic acid]: the log reduction at 5 ppm is 6.28 in the test with S. aureus (5 ppm, Milli-Q water pH 4.04, Post Test pH 4.09, 30 Second Exposure at Room Temperature, read-out: Log Reduction of S. aureus); 5.01 in the test on S. aureus (5 ppm, Milli-Q water pH 5.00, Post Test pH 5.03, 30 Second Exposure at Room Temperature, read-out: Log Reduction of S. aureus); 4.44 with S. aureus (5 ppm, Milli-Q water pH 5.98, Post Test pH 5.89, 30 Second Exposure at Room Temperature, read-out: Log Reduction of S. aureus); 6.04 with S. aureus (5 ppm, Milli-Q water pH 6.60, Post Test pH 6.24, 30 Second Exposure at Room Temperature, read-out: Log Reduction of S. aureus); 5.82 in the test on S. aureus (5 ppm, Soft water pH 3.91, Post Test pH 4.01, 30 Second Exposure at Room Temperature, read-out: Log Reduction of S. aureus); 5.16 in the test with S. aureus (5 ppm, Soft water pH 5.08* (pH drift of ~0.7 pH units), Post Test pH 5.79, 30 Second Exposure at Room Temperature, read-out: Log Reduction of S. aureus). For the same compound, the log reduction at 5 ppm was 4.19 in the test with S. aureus (5 ppm, Soft water pH 5.91* (pH drift of ~0.7 pH units), Post Test pH 6.68, 30 Second Exposure at Room Temperature, read-out: Log Reduction of S. aureus); 0.1 in the test on S. aureus (5 ppm, Soft water pH 9.29, Post Test pH 9.12, 30 Second Exposure at Room Temperature, read-out: Log Reduction of S. aureus); 5 in the test on S. aureus (concentration of 5 ppm, pH of ~5, 30 sec, RT, read-out: log reductions of Staphylococcus aureus); 1.34 in the test with E. coli (Milli-Q water pH 4.04, Post Test pH 4.09); 0.07 in the test with E. coli (Milli-Q water pH 5.00, Post Test pH 5.03); 0.11 with E. coli (Milli-Q water pH 5.98, Post Test pH 5.89). Besides, the log reduction at 5 ppm with E. coli (Milli-Q water pH 6.60, Post Test pH 6.24) was 0.09; in the test on E. coli (setting [1]), 1.26; in the test with E. coli (Soft water pH 5.08* (pH drift of ~0.7 pH units), Post Test pH 5.79), 0.09; with E. coli (Soft water pH 5.91* (pH drift of ~0.7 pH units), Post Test pH 6.68), 0.08; in the test with E. coli (Soft water pH 9.29, Post Test pH 9.12), 0.07. The log reduction at 10 ppm was above 6.82 in the test on S. aureus (Milli-Q water pH 4.04, Post Test pH 4.08, 30 Second Exposure at Room Temperature); above 6.82 in the test with S. aureus (Milli-Q water pH 5.00, Post Test pH 4.98, 30 Second Exposure at Room Temperature); 6.52 in the test on S. aureus (Milli-Q water pH 5.98, Post Test pH 5.90, 30 Second Exposure at Room Temperature); above 6.82 with S. aureus (Milli-Q water pH 6.60, Post Test pH 5.80, 30 Second Exposure at Room Temperature); 6.28 with S. aureus (Soft water pH 3.91, Post Test pH 4.01, 30 Second Exposure at Room Temperature); 6.12 in the test with S. aureus (Soft water pH 5.08, Post Test pH 5.67, 30 Second Exposure at Room Temperature). The log reduction at 10 ppm with S. aureus (Soft water pH 5.91, Post Test pH 6.68, 30 Second Exposure at Room Temperature) was above 6.82; in the test with S. aureus (Soft water pH 9.29, Post Test pH 9.09, 30 Second Exposure at Room Temperature), 0.26; in the test with E. coli (Milli-Q water pH 4.04, Post Test pH 4.08), 6.04; in the test with E. coli (Milli-Q water pH 5.00, Post Test pH 4.98), 0.07; in the test on E. coli (Milli-Q water pH 5.98, Post Test pH 5.90) it was 0.1; in the test on E. coli (Milli-Q water pH 6.60, Post Test pH 5.80), 0.06. In addition, the log reduction at 10 ppm with E. coli (setting [1]) amounted to 6.34; with E. coli (Soft water pH 5.08, Post Test pH 5.67), 0.55; in the test on E. coli (Soft water pH 5.91, Post Test pH 6.68), 0.24; in the test with E. coli (Soft water pH 9.29, Post Test pH 9.09), 0.07. Besides, the log reduction at 20 ppm was found to be 0.62 in the test on E. coli (20 ppm, 500 ppm Synthetic Hard Water, pH 7.77, pH 7.68) and 0.55 in the test with E. coli (pH 5.58, 20 ppm, Milli-Q water, pH 5.58). The log reduction at 40 ppm was 0.93 with E. coli (40 ppm, 500 ppm Synthetic Hard Water, pH 7.77, pH 7.61) and 2.61 in the test with E. coli (pH 5.28, 40 ppm, Milli-Q water, pH 5.28). The log reduction at 60 ppm in the test with E. coli (60 ppm, 500 ppm Synthetic Hard Water, pH 7.77, pH 7.54) came out at 1.12; in the test on E. coli (pH 5.08, 60 ppm, Milli-Q water, pH 5.08) it was 4.68.
